Measured values from patent publication US10835500B2, “Medicament for accelerated wound healing” (Symrise AG, priority 2014, dated 2020).
Entries after “also recorded” stand apart in the source; their conditions may differ. Like-named read-outs stand apart in the source and are kept apart here.

Tests used:
HaCaT cells [1] = assay: Calcium imaging in HaCaT cells; assay type: cell-based, human; settings: for calcium signals on repeated stimulation: repeated application (500 μM in FIG. 9); for EC50: calcium signal amplitude, read-out: ECR50R value
Method: In the fourth application, saturation occurred at approx. 500 μM (FIG. 9d). The ECR50R value was 430 μM of Sandalore® in the first application and 112 μM of Sandalore® in the fourth application.
The Sandalore®-induced signal cascade in HaCaT cells and primary keratinocytes was pharmacologically characterized using the calcium imaging technique and specific blockers of signal cascade proteins. An investigation was first conducted in order to determine whether the calcium signals are caused by calcium inflow from the extracellular space. For this purpose, a calcium-free extracellular solution was used with a calcium chelator (EGTA) added. […] In order to investigate the role of adenylyl cyclase, the specific blockers SQ-22536 and MDL-12330A were used. […] The efficacy of the blockers was tested in this case with histamine, which activated the PLC signalling pathway (FIG. 11c). […]
In order to characterize the antagonists, HaCaT cells were first repeatedly stimulated with Sandalore® (1 mM). On the third application, costimulation (1:1) with Sandalore® and one of the antagonists took place. […] Based on this, dose-dependent characterization of inhibition was to be carried out. For this purpose, Sandalore® and the antagonists were costimulated with different concentrations.
Effect of the OR2AT4 ligand Sandalore® on intracellular calcium concentration of cultivated keratinocytes. […] 100 μM of ATP was used at the end of each measurement as a positive control stimulus. Right: Quantitative evaluation of calcium signals in 4-time application of Sandalore® (500 μM). Shown are the mean values of the individual applications including standard error. Mann-Whitney U test. *: p<0.05. C) and D): dose-dependent activation of HaCaT cells in calcium imaging experiments. Shown are the mean amplitudes including standard error at various concentrations in the first (C) and fourth (D) Sandalore® application. Number of cells measured: 0.0125 mM (39), 0.025 mM (30), 0.1 mM (46), 0.5 mM (34), 1 mM (63), 2 mM (41), 10 mM (36).
A) Representative calcium imaging traces of HaCaT cells (left) and primary keratinocytes (right) incubated with the gap junction blocker 1-octanol (500 μM) and then repeatedly stimulated with Sandalore® (500 μM, horizontal bars) (blue trace). […] 100 μM of ATP was used at the end of each measurement as a positive control stimulus. Quantitative evaluation of HaCaT cells (B) and primary keratinocytes (C) incubated with the gap junction blockers 1-octanol (500 μM) or carbenoxolone (10 μM) and then repeatedly stimulated with Sandalore® (500 μM) or Lyral (1 mM) in calcium imaging experiments. Shown are the mean values of the individual applications including standard error relative to the control measurements (Sandalore® application without blocker). Mann-Whitney U test. Number of cells measured: Sandalore®+1-octanol (HaCaT (110), keratinocytes (26)); Sandalore®+carbenoxolone: HaCaT (74); Lyral+carbenoxolone: HaCaT (43). ***: p<0.001.
Pharmacological characterization of Sandalore®-induced signal cascade in human keratinocytes. A)-D). Shown are representative calcium imaging traces of primary keratinocytes in the presence of a blocker (blue). The horizontal bars correspond to the application times. 100 μM of ATP was used at the end of each measurement as a positive control stimulus. A) Measurement with calcium-free extracellular solution (+10 mM EGTA). B) Measurement with the adenylyl cyclase blocker SQ-22536 (100 μM). C) Use of the phospholipase-C blocker U-73122 (10 μM). 100 μM of histamine was taken as a positive control. D) Measurement with the CNG channel blocker L-cis-diltiazem (150 μM). E) Overview of pharmacological measurement of HaCaT cells and primary keratinocytes (Kera). The mean amplitudes relative to the control measurements (dashed line) are indicated. MDL-12330A (40 μM). […]

HaCaT cells [2] = assay: In vitro wound scratch assay, HaCaT cells; assay type: cell-based, human; settings: for faster closing of the scratch: HaCaT cells, 500 μM, observed for two days
Description: The MAP kinases p38 and ERK1/2 are often associated with increased proliferation and migration in epidermal wound healing. For this reason, in a further physiological experiment, the effect of Sandalore® on “wound healing” of a confluent cell layer of HaCaT cells or primary keratinocytes was investigated. For this purpose, the wound scratch assay was used, which is an established in vitro method for initial investigations of wound healing processes in keratinocytes.
In order to investigate the role of the OR2AT4 receptor in this effect, a test was conducted to determine whether the two antagonists Oxyphenylon and Phenirat could again reduce the “wound healing” increased by Sandalore®. For this purpose, Sandalore® was mixed with one of the antagonists each in the same ratio, and the effect on “wound healing” of the HaCaT cells was again observed for 48 hours. […] The two antagonists alone had no effect on the “wound healing” (FIG. 18d). The role of the MAP kinases p38 and ERK1/2 was investigated by means of specific inhibitors of the kinases. For p38 MAPK, the […] SB203580 was used, and for ERK1/2 MAPK, the […] U0126 was used. […] The two inhibitors alone had no effect on the wound healing (FIG. 18d).
Effect of Sandalore® stimulation on human keratinocytes in an in vitro “wound healing” assay. Investigation of the “wound healing rate” of A) primary keratinocytes and B) HaCaT cells by means of a wound scratch assay in the presence of Sandalore® (500 μM) or 0.1% DMSO as a control. Left: Transmitted light images of the “wound” observed at various times. The growth margin of the cells was surrounded in black. Scale: 200 μm. Right: Quantitative evaluation of the wound scratch assay. The areas of the wounds were measured and compared to the initial wound (0 h). Mean values including standard error. Mann-Whitney U test; n=4 experiments. *: p<0.05; ***: p<0.001. C) Wound scratch assay in the presence of Sandalore® (500 μM) and one of the antagonists Oxyphenylon (500 μM) or Phenirat (500 μM) respectively, the p38 MAPK inhibitor 5B203580 (10 μM), or the ERK1/2 MAPK inhibitor U0126 (10 μM). The measured wound areas of the treated cells (after 48-hour stimulation) were compared to the control (0.1% DMSO). Mean values including standard error. Kruskal-Wallis test with multiple comparison; n=3 experiments. *: p<0.05. D) Controls for the wound scratch assay with Oxyphenylon (500 μM), Phenirat (500 μM), 5B203580 (10 μM), or U0126 (10 μM) carried out under C). The measured wound areas of the treated cells were compared to the control (0.1% DMSO). Mean value included.

`CC1=CCC(CCC(C)CO)C1(C)C` (centres unmarked) [Brahmanol®] was tested, and the “calcium signals on repeated stimulation” value (HaCaT cells [1]; HaCaT cells) was “significant sensitization” and the “faster closing of the scratch” value (HaCaT cells [2]) was 26%.
In the case of `CC(=O)CCc1ccc(O)cc1` [Oxyphenylon], the “inhibitory action on Sandalore-induced calcium signals” value (HaCaT cells [1]; Sandalore 500 μM + antagonist 100 μM) is reported as “disappeared completely”, the “amplitude heights, % of the control amplitudes” value (HaCaT cells [1]; Sandalore 500 μM + antagonist 250 μM) is reported as 39% and the “calcium signals, % of the control amplitude (Sandalore without antagonists)” value (HaCaT cells [1]; Sandalore 500 μM + antagonist 500 μM) is reported as 8%. For the same compound, the “blocking of Sandalore-induced calcium signals” value (HaCaT cells [1]; antagonist 500 μM, Sandalore 750 μM) was “decreased”, the “inhibition of Sandalore-induced calcium signals” value (HaCaT cells [1]; antagonist 500 μM, Sandalore 1 mM) was “completely eliminated” and the IC50 (HaCaT cells [1]; inhibition of calcium signals induced by 500 μM Sandalore, read-out: IC50 values (mean inhibitory concentrations)) was 174 µM. The “effect on Sandalore-induced calcium signals on coapplication” value (HaCaT cells [1]; third application, costimulation 1:1 with Sandalore 1 mM) was “significant reduction”, the “Sandalore-increased wound healing on coincubation” value (HaCaT cells [2]; HaCaT, 48 hours, Sandalore 500 μM + antagonist 500 μM or inhibitor 10 μM) was “reduced “wound healing” to the normal level” and the “effect of the substance alone on wound healing” value (HaCaT cells [2]; HaCaT, antagonist 500 μM or inhibitor 10 μM alone) was “no effect”.
`CC1=CCC(CCC(C)C(C)O)C1(C)C` (centres unmarked) [Sandalore®] was tested, and the “share of cells repeatedly stimulated” value (HaCaT cells [1]; HaCaT cells, calcium imaging) was 80-90%, the “calcium signals on repeated stimulation” value (HaCaT cells [1]; HaCaT cells) was “significant sensitization; also recorded: induced calcium signals” and the “calcium signals on repeated stimulation” value (HaCaT cells [1]; HaCaT cells, listed as Sandalore) was “significant sensitization”. For the same compound, the “concentration at which dose-dependent activation begins” value (HaCaT cells [1]; amplitude of the first application) was 100 µM, the EC50 (HaCaT cells [1]; first application) was 430 µM and the EC50 (HaCaT cells [1]; fourth application) was 112 µM. The “concentration from which saturation is reached” value (HaCaT cells [1]; first application) was “approx. 2 mM”, the “concentration at which saturation occurred” value (HaCaT cells [1]; fourth application) was “approx. 500 μM” and the “faster closing of the scratch” value (HaCaT cells [2]) was 26%.
